Holding throughout (type): cell-based
One assay has as its target T1, PLK1 (Homo sapiens, UniProt P53350).
T1 construct: endogenous in cells; host or cells: HeLa LgBit (Plk1-HiBit KI): HeLa cells stably expressing LgBit, with HiBit knocked into the endogenous Plk1 locus by CRISPR/Cas9
Description: Luciferase assay for PLK1 in HeLa LgBit (Plk1-HiBit KI) cell line. The note with it: 300 nM compound, luminescence after 9 hours, read-out: Activity: ratio of the luminescense value of compound treatment group to DMSO treatment group. An outline of the steps:
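HeLa cells stably expressing LgBit, with HiBit knocked in at the C-terminus of endogenous Plk1, released from a 24 h 2 mM thymidine block and grown 18 h. Endurazine added, then compound at 300 nM; luminescence tracked in real time, expressed as ratio to DMSO.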
In general terms: The HiBiT peptide binds its large partner to form an active luciferase.

In a further assay the test system is NCI-H526 cell line. Kind of assay: Cell viability assay for H526 cell line. The note with it: Homo sapiens, NCI-H526, 120 h; H526 cells, 5 days, EZ-Cytox, 3000 nM to 0.46 nM. In short, it runs like this:
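NCI-H526 cells exposed to compounds for 5 days in a CO2 incubator; viability read as absorbance at 450 nm after 3 min plate shaking; IC50 derived from treatment response.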

The test system of another assay is MRC-5 cell line. Description: Cell viability assay (cytotoxicity) for MRC-5 cell line. The note with it: Homo sapiens, MRC5, 120 h; MRC-5 normal cell line, 5 days, EZ-Cytox, 10000 nM to 1.52 nM; read-out: Activity: IC50 value to MRC-5 cell line (Exemplary Compounds). The procedure: 4. Cell Viability Assay for MRC-5 Cell Line
(1) Culture of MRC-5 Cell Line
Passage of cultured cells was maintained within P15.
(2) Treatment of Compounds of the Present Invention
Then, it was cultured in 37° C.
(3) Cytotoxicity Experiment
CO2 incubator for 4 hours.
Cell Viability Assay for MRC-5 cell line

Broadly, the IC50 is the point on the concentration scale where inhibition reaches its midpoint.

T1 sequence (P53350 whole entry): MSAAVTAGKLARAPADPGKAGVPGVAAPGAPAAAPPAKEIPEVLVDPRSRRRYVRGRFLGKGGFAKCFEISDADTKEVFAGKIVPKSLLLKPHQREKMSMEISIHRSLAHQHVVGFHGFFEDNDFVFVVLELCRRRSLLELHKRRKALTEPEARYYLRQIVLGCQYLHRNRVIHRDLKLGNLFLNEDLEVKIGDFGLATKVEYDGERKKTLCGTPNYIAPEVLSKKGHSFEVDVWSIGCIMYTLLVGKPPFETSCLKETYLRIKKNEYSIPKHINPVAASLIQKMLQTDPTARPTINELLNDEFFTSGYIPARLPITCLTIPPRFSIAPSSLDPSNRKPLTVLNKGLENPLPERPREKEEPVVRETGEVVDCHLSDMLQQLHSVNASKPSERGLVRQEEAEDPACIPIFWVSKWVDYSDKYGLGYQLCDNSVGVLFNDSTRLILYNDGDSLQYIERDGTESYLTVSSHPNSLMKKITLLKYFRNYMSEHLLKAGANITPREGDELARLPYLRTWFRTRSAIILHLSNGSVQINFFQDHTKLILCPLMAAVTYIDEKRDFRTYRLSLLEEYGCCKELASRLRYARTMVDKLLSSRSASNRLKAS

In the case of `COc1cc(C(=O)NC2CCN(C(=O)CCCOc3cccc(C4CCC(=O)NC4=O)n3)CC2)ccc1Nc1ncc2c(n1)N(C1CCCC1)CC(F)(F)C(=O)N2C` (stereo not drawn) [Compound 35, 4-((9-cyclopentyl-7,7-difluoro-5-methyl-6-oxo-6,7,8,9-tetrahydro-5H-pyrimido[4,5-b][1,4]diazepin-2-yl)amino)-N-(1-(4-((6-(2,6-dioxopiperidin-3-yl)pyridin-2-yl)oxy)butanoyl)piperidin-4-yl)-3-methoxybenzamide], the remaining activity at 0.3 µM on PLK1 is less than 60%. Besides, the figures for the IC50 with NCI-H526 cell line and in the assay on MRC-5 cell line were less than 0.05 µM and more than 10 µM, respectively.
For `COc1cc(C(=O)NC2CCN(C(=O)CCN3CCN(c4cccc(C5CCC(=O)NC5=O)n4)CC3)CC2)ccc1Nc1ncc2c(n1)N(C1CCCC1)CC(F)(F)C(=O)N2C` (stereo not drawn) [Compound 36, 4-((9-cyclopentyl-7,7-difluoro-5-methyl-6-oxo-6,7,8,9-tetrahydro-5H-pyrimido[4,5-b][1,4]diazepin-2-yl)amino)-N-(1-(3-(4-(6-(2,6-dioxopiperidin-3-yl)pyridin-2-yl)piperazin-1-yl)propanoyl)piperidin-4-yl)-3-methoxybenzamide], in that order: less than 60%, less than 0.03 µM and more than 10 µM.
Taken in the same sequence, the figures for `COc1cc(C(=O)NC2CCN(C(=O)CCN3CCN(c4ccnc(C5CCC(=O)NC5=O)c4)CC3)CC2)ccc1Nc1ncc2c(n1)N(C1CCCC1)CC(F)(F)C(=O)N2C` (stereo not drawn) [Compound 37, 4-((9-cyclopentyl-7,7-difluoro-5-methyl-6-oxo-6,7,8,9-tetrahydro-5H-pyrimido[4,5-b][1,4]diazepin-2-yl)amino)-N-(1-(3-(4-(2-(2,6-dioxopiperidin-3-yl)pyridin-4-yl)piperazin-1-yl)propanoyl)piperidin-4-yl)-3-methoxybenzamide] were less than 60%, less than 0.05 µM and more than 10 µM.
For the compound `COc1cc(C(=O)NC2CC3(CCN(CC4CCN(c5ccc(C6CCC(=O)NC6=O)nc5)CC4)CC3)C2)ccc1Nc1ncc2c(n1)N(C1CCCC1)CC(F)(F)C(=O)N2C` (stereo not drawn) [Compound 39, 4-((9-cyclopentyl-7,7-difluoro-5-methyl-6-oxo-6,7,8,9-tetrahydro-5H-pyrimido[4,5-b][1,4]diazepin-2-yl)amino)-N-(7-((1-(6-(2,6-dioxopiperidin-3-yl)pyridin-3-yl)piperidin-4-yl)methyl)-7-azaspiro[3.5]nonan-2-yl)-3-methoxybenzamide], the remaining activity at 0.3 µM on PLK1 is less than 60%. The values for the half-inhibitory concentration (IC50) in the assay on NCI-H526 cell line and with MRC-5 cell line were less than 0.03 µM and more than 10 µM, respectively.
Taken in the same sequence, the figures for `COc1cc(C(=O)NC2CC3(CCN(CCC4CCN(c5ccc(C6CCC(=O)NC6=O)cc5F)CC4)CC3)C2)ccc1Nc1ncc2c(n1)N(C1CCCC1)CC(F)(F)C(=O)N2C` (stereo not drawn) [Compound 45, 4-((9-cyclopentyl-7,7-difluoro-5-methyl-6-oxo-6,7,8,9-tetrahydro-5H-pyrimido[4,5-b][1,4]diazepin-2-yl)amino)-N-(7-(2-(1-(4-(2,6-dioxopiperidin-3-yl)-2-fluorophenyl)piperidin-4-yl)ethyl)-7-azaspiro[3.5]nonan-2-yl)-3-methoxybenzamide] were less than 60%, less than 0.03 µM and 8.68 µM.
